Results as given in patent US10173995B2, “Pyridine compounds used as PI3 kinase inhibitors” (Teligene Ltd., priority 2013, dated 2019).

Tests used:
[1] = test system: MCF-7 human breast cancer cell lines; assay: MCF-7 cell proliferation assay (CCK-8/WST-8, 72 hours); type: cell-based; settings: MCF7, WST-8
Description: A representative number of compounds were assayed against MCF-7 human breast cancer cell lines using the cell proliferation assay:
1. MCF-7 cells were cultured in EMEM (GIBCO, Cat#41500) medium supplemented with 10% fetal bovine serum, 0.01 mg/ml human recombinant insulin and 1% penicillin-streptomycin solution, in the temperature of 37° C., 5% CO2 and 95% humidity. The cells were harvested during the logarithmic growth period and counted with hemocytometer. The cell viability will be over 98% by trypan blue exclusion. Cell Counting Kit-8 (Dojindo, Cat# CK04) was used. 2. A cell suspension (100 μl) was added into 96-well plates (triplicates for each cell concentration), the cell density was 4.0×10^3/well. The next day, the test articles or positive drug stock solution were dissolved in DMSO at the concentration of 10 mM, the stock solutions were diluted with DMSO by serial 3 or 10 fold dilution. Then the test articles dilutions were further diluted with culture medium to the final concentrations of (10.0 μM, 3.33 μM, 1.11 μM, 366 nM, 122 nM, 40.7 nM, 13.6 nM, 4.52 nM and 0 nM), the positive drug dilutions were further diluted with culture medium to 9 final concentrations of (10 μM, 1 μM, 100 nM, 10 nM, 1 nM, 0.1 nM, 0.01 nM, 0.001 nM and 0 nM). […] The absorbance was recorded at 450 nm using Victor Multilabel Plate Reader. […]

A549 cell line xenograft = assay: In vivo subcutaneous A549 cell line xenograft model in nude mice, tumor growth inhibition; settings: for Tumor growth inhibition (TGI, %) at 14 days: day 14, A549 xenograft nude mice
Description: (§1) A representative protocol for the in vivo experiment is as follows to establish the subcutaneous A549 cell line xenograft model in nude mice and to evaluate the in vivo therapeutic efficacy of the compounds: A549 cells were cultured in RPMI1640 containing 10% fetal bovine serum, 1% L-glutamine, 100 U/mL penicillinG and 100 μg/mL streptomycin. Cells in logarithmic growth phase were harvested and resuspended in 1×PBS for implantation.
(§2) Tumor xenografts were established by injecting tumor cells 5×10^6/mouse into the right flank by sc under sterile conditions. When the tumors reached an appropriate size (100-200 mm^3), mice were randomized into 6 mice per group (8 mice in control group). The tumors were measured using a caliper in two dimensions, length (a), and width (b). Tumor volumes were estimated from measurements of two diameters of the individual tumors as follows: Tumor Volume(mm^3)=(a×b^2)/2 The tumor sizes and animal body weights were measured twice a week. Mice were observed daily for clinical signs. Blood samples were collected 2 hours after last treatment; plasma samples were prepared and stored at −80° C. Tumor tissues were separated, weighed, taken picture, and subsequently stored at −80° C. for further analysis. All animal experiments were performed in accordance with the Guidelines for Use and Care of Animals of the University of Traditional Medicine. The parameters for in vivo efficacy evaluation were calculated according to the guidance of SFDA. Percent T/C (%) was calculated with the following formula: T/C(%)=(TRTV/CRTV)×100%, where TRTV and CRTV stand for relative tumor volume in treatment group and vehicle control group, respectively. Relative tumor volume (RTV) was calculated using the formula: RTV=Vt/V0, where Vt represents volume on testing day, and V0 represents volume on first day of treatment. Tumor growth inhibition (TGI, %) were calculated as TGI (%)=(Ctw−Ttw)/Ctw×100%, where Ctw and Ttw represent mean tumor weight in vehicle control and treatment group, respectively.
(§3) Compound Preparation: Test articles were dissolved in 100% N-methylpyrrolidone (NMP) and 10× solutions were prepared every five days, aliquotted, and stored in the dark at room temperature. On each treatment day, stock solution aliquots were diluted with polyethylene glycol (PEG300) to provide the formulated drug in 10% NMP: 90% PEG300. Dosing solutions were protected from light, and the formulated drug was administered within 1 hour after preparation. In all groups, the dosing volume of 10 mL/kg (0.2 mL/20 g mouse) was scaled to the weight of each animal as determined on the day of dosing, except on weekends when the previous BW is carried forward. Test articles were administered by oral gavage (p.o.) once daily until the end of the study.
(§4) At study endpoint, after blood collection, mice were practiced euthanasia by cervical dislocation, the tumor tissue was collected first, then abdominal cavity was cut open, liver and spleen were excised, then weight after the gallbladder was removed respectively. Organ weight between the treated versus the control groups were compared.

[2] = Kidney weight change versus control in A549 xenograft model in nude mice; type: in vivo; settings: day 21, A549 xenograft nude mice
Description: as §1, §2, §3, §4

PI3K alpha (PIK3CA) = PI3K alpha (PIK3CA) (Homo sapiens (Human), UniProt P42336); assay: In vitro assay of ability to inhibit PI3K alpha activity (phage-tagged kinase competition binding, qPCR)
Chain of PI3K alpha (PIK3CA) (P42336 whole entry, species assumed): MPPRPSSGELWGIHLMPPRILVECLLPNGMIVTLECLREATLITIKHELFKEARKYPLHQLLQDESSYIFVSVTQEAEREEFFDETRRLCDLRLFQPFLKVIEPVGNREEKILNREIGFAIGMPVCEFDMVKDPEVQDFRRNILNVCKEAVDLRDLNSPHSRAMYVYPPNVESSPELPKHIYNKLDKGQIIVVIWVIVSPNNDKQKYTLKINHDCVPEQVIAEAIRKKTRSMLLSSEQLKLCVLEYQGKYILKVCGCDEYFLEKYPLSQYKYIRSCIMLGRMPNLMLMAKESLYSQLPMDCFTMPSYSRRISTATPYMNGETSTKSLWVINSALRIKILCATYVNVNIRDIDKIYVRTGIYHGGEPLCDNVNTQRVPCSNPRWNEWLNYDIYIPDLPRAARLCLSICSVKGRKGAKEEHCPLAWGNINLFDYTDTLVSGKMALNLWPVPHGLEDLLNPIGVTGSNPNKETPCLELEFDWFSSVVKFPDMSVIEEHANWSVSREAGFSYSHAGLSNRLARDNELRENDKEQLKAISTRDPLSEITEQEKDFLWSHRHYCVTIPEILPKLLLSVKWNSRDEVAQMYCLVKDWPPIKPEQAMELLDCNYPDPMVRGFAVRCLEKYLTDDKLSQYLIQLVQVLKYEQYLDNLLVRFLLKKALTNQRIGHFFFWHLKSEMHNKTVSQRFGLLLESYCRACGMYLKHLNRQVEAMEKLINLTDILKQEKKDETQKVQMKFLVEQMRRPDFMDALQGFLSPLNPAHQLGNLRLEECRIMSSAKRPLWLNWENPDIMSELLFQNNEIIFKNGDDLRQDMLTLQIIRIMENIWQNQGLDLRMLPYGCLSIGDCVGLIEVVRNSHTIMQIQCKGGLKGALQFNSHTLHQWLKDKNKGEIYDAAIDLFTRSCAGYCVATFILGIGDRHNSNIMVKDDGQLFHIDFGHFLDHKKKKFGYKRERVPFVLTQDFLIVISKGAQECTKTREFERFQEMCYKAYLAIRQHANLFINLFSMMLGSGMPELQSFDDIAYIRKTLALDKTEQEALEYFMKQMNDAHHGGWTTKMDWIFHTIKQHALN
Description: (§5) (a) An in vitro assay which determines the ability of a test compound to inhibit PI3K alpha activity: PI3 alpha (PIK3CA) kinase-tagged T7 phage strains were prepared in an E. coli host derived from the BL21 strain. E. coli were grown to log-phase and infected with T7 phage and incubated with shaking at 32° C. until lysis. The lysates were centrifuged and filtered to remove cell debris. The remaining kinases were produced in HEK-293 cells and subsequently tagged with DNA for qPCR detection. […] The liganded beads were blocked with excess biotin and washed with blocking buffer (SeaBlock (Pierce), 1% BSA, 0.05% Tween 20, 1 mM DTT) to remove unbound ligand and to reduce non-specific binding. Binding reactions were assembled by combining kinases, liganded affinity beads, and test compounds in 1× binding buffer (20% SeaBlock, 0.17×PBS, 0.05% Tween 20, 6 mM DTT). All reactions were performed in polystyrene 96-well plates in a final volume of 0.135 ml. The assay plates were incubated at room temperature with shaking for 1 hour and the affinity beads were washed with wash buffer (1×PBS, 0.05% Tween 20). […] The kinase concentration in the eluates was measured by qPCR.
An 11-point 3-fold serial dilution of each test compound was prepared in 100% DMSO at 100× final test concentration and subsequently diluted to 1× in the assay (final DMSO concentration=1%).
Binding constants (Kd's) were calculated with a standard dose-response curve using the Hill equation: Response=Background+(Signal−Background)/(1+(Kd^Hill Slope/Dose^Hill Slope)) The Hill Slope was set to −1. Curves were fitted using a non-linear least square fit with the Levenberg-Marquardt algorithm.

[3] = target: MTOR (Mammalian target of rapamycin) (Homo sapiens (Human), UniProt P42345); assay: In vitro assay of ability to inhibit MTOR (same conditions as PI3K alpha assay); type: binding; settings: read-out: IC50 for MTOR inhibition
Description: as §5, with “qPCR. […]” for “qPCR.”
Binding constants (Kd's) were calculated with a standard dose-response curve using the Hill equation: Response=Background+(Signal−Background)/(1+(Kd^Hill Slope/Dose^Hill Slope)) The Hill Slope was set to −1. […]

[4] = 49 μmol/kg oral gavage once daily
[5] = 98 μmol/kg oral gavage once daily

## Nc1cc(C(F)(F)F)c(-c2cc(N3CCOCC3)nc(N3CCOCC3)n2)cn1 [Compound 1, 5-(2,6-Dimorpholinopyrimidin-4-yl)-4-(trifluoromethyl)pyridin-2-amine, reference compound]
[1]
  IC50: 186 nM
A549 cell line xenograft; [4]
  Tumor growth inhibition (TGI, %) at 14 days: 36%
A549 cell line xenograft; [5]
  Tumor growth inhibition (TGI, %) at 14 days: 70%
[2]; [4]
  Kidney weight change compared to the control at 21 days: −8.7%
[2]; [5]
  Kidney weight change compared to the control at 21 days: −20.1%

## CC(=O)Nc1cc(C(F)(F)F)c(-c2cc(N3CCOCC3)nc(N3CCOCC3)n2)cn1 [Compound 2, N-(5-(2,6-dimorpholinopyrimidin-4-yl)-4-(trifluoromethyl)pyridin-2-yl)acetamide]
[1]
  IC50: 82.4 nM
A549 cell line xenograft; [4]
  Tumor growth inhibition (TGI, %) at 14 days: 52%
A549 cell line xenograft; [5]
  Tumor growth inhibition (TGI, %) at 14 days: 82%

## CNc1cc(C(F)(F)F)c(-c2cc(N3CCOCC3)nc(N3CCOCC3)n2)cn1 [Compound 4, 5-(2,6-dimorpholinopyrimidin-4-yl)-N-methyl-4-(trifluoromethyl)pyridin-2-amine]
PI3K alpha (PIK3CA)
  IC50: 1.9 nM

## CCNc1cc(C(F)(F)F)c(-c2cc(N3CCOCC3)nc(N3CCOCC3)n2)cn1 [Compound 5, 5-(2,6-dimorpholinopyrimidin-4-yl)-N-ethyl-4-(trifluoromethyl)pyridin-2-amine]
PI3K alpha (PIK3CA)
  IC50: 10 nM

## CCCNc1cc(C(F)(F)F)c(-c2cc(N3CCOCC3)nc(N3CCOCC3)n2)cn1 [Compound 6, 5-(2,6-dimorpholinopyrimidin-4-yl)-N-propyl-4-(trifluoromethyl)pyridin-2-amine]
PI3K alpha (PIK3CA)
  IC50: 60 nM

## NCC(=O)Nc1cc(C(F)(F)F)c(-c2cc(N3CCOCC3)nc(N3CCOCC3)n2)cn1 [Compound 9, 2-amino-N-(5-(2,6-dimorpholinopyrimidin-4-yl)-4-(trifluoromethyl)pyridin-2-yl)acetamide]
PI3K alpha (PIK3CA)
  IC50: 0.84 nM
[3]
  IC50: 26 nM
A549 cell line xenograft; 49 μmol/kg dose, day 21
  Efficacy in A549 xenograft model at day 21 (in words): better efficacy than Compound 1
[2]; [4]
  Kidney weight change compared to the control at 21 days: −5.0%
[2]; [5]
  Kidney weight change compared to the control at 21 days: −8.1%
[2]
  Kidney weight decrease compared with the control (in words): much less decreased kidney weight than Compound 1
